Results taken from patent US20040101828A1, “Method for analysis of the phenoptypic characteristics of the human immunodeficiency virus (HIV)” (priority 2000, published 2004).

Legend:
[1] = test system: HIV viruses (NL-DIM, NL4.3, LAI-L91H); test: Validation of fusion inhibitor susceptibility method: resistant recombinant viruses versus reference viruses T5A1 and LAI; assay type: cell-based, HIV-1
Method: The recombinations that are obtained by using for the amplification of stage (b) the pair of primers FuA: 5′ […]3′ (SEQ ID No: 23) and FuB: 5′ […]3′ (SEQ ID No: 24) followed by a second amplification, carried out with the primer: FuC: 5′ […]3′ (SEQ ID No: 25) and a mixture of the following primers: FuD1: 5′ […]3′ (SEQ ID No: 26) and FuD2: 5′ […]3′ (SEQ ID No: 27) are very effective.
Actually, to obtain a satisfactory viral production, 10-50 ng of PCR product, used in the recombination stage, is generally adequate. In this method that is intended to analyze the phenotypic fusion characteristic, a viral production corresponding to 50-400 ng/ml of p24 is obtained after transfection. For the infection of target cells, between 0.5 and 5 ng of p24/well (96-well plates) is used. The increase of the optical density that is obtained after infection of target cells is linear if the infection is conducted under these conditions.
To validate the analytical method that relates to the susceptibility of HIV viruses to fusion inhibitors, two fusion inhibitors have been used: a peptide derived from the distal helix sequence in the gp41 of HIV (called DP178 or T20) and a derivative of betulinic acid (RPR103611). For each inhibitor, the reduction of sensitivity of one or more resistant viruses (previously identified by other authors) relative to two reference viruses: a primary plasmatic virus T5A1 and a virus adapted to in-vitro cultivation (LAI) was carried out. All the viruses were produced by recombination.
The increases of IC50 for a strongly resistant NL-DIM virus (described by Rimsky, L. T. et al. J. Virol. 1998, Vol. 72, pages 896-993) and for the NL4.3 virus (which is partially resistant) were measured regarding this inhibitor.
The increase of IC50 of the LA1-L91H resistant virus (Labrosse, B. et al. J. Virol. 2000 Vol 74, pages 2142-2150) regarding this inhibitor has been measured.

[2] = test system: HIV virus (recombinant virus carrying reverse transcriptase from patient plasma); test: Recombinant virus assay (RVA): susceptibility to reverse transcriptase inhibitors, recombinant viruses from patient samples; assay type: cell-based, HIV-1; details: for resistance levels (in words): sample R5; for median Resistance Index (RI) relative to NL43: 22 tested viruses from patients with ordinary treatment, 3 RVA replicates
Method: (§1) The determination of the susceptibility of an HIV virus to a reverse transcriptase inhibitor is carried out in the following manner: 293 T cells are transfected with 7.5 μg of pSRT plasmid that is linearized by NruI, 0.1 μg of pVSV-G plasmid and 0.5 and 1 μg of the product that is obtained from the PCR reaction of the reverse transcription of HIV. The transfection precipitate is withdrawn from cells after 18 hours of incubation, and fresh growth medium is added. After 24 hours of cultivation, the supernatant is clarified by centrifuging (500 g, 15 minutes) and transferred to P4 indicating cells that were pre-incubated with serial dilutions of a reverse transcriptase inhibitor, in triplicate wells, for four hours. The range of inhibitor concentrations used varies according to the compounds. The signal that is produced by the activation of the marker gene was developed with CPRG for 48 hours as for the analysis of the susceptibility to a reverse transcriptase inhibitor, and index IC50 was calculated by using the median effect equation.
To determine if NL43 is a reference virus that is suitable for comparison with clinical isolates, a group of samples taken from patients with ordinary treatment was tested on 3 RVA replicates for their susceptibility to reverse transcriptase inhibitors.
The reproducibility of the method for determining the susceptibility of the recombinant virus (RVA) to reverse transcriptase inhibitors (RTI) was evaluated by a series of test on 5 samples, selected so as to represent a wide range of susceptibility profiles, between 4 and 8 tests per sample, by using RNA preparations and separate PCR reactions.

Reference Virus NL4-3 = test: Recombinant virus assay (RVA): susceptibility to reverse transcriptase inhibitors, reference virus; assay type: cell-based, HIV-1
Method: as §1
The pSRT plasmid that brings a deletion in the region that codes for pol extending from codon 24 of reverse transcriptase (base 2618) to codon 432 of reverse transcriptase (base 3872) includes all of the mutations combined with a resistance phenomenon that are known to date. […]

P4 cells = assay type: cell-based
Description: The inhibitor concentration ranges that are used are selected based on the cellular toxicity of each compound and the IC50/IC90, ratio for the susceptibility of the resistant isolates (Table 1). […] A range of four serial dilutions, beginning at […], was used for the abacavir, making it possible to detect up to 60× more resistance.

[3] = target: Envelope protein (gp41) of the NL4.3 reference virus (HIV-1); test: cell-based or functional assay
[4] = target: Envelope protein (gp41) of the strongly resistant NL-DIM virus (HIV-1); test: cell-based or functional assay
[5] = sample R1 (69N/T, 70R), 6 tests
[6] = sample R2 (41L, 62V, 67N, 69N, 75I, 77L, 115F, 116Y, 151M, 181C, 184V, 190A, 208Y, 215F, 219Q), 6 tests
[7] = sample R3 (184V, 215F), 6 tests
[8] = sample R4 (41L, 67N, 69D, 184V, 190A, H208Y, 210W, 215Y), 5 tests
[9] = sample R5 (215Y, 41L, 74V, 100I, 103N), 5 tests

Molecule | Resistance Index, geometric mean (IC50 in the sample relative to NL43) [2, 5] | Resistance Index, geometric mean (IC50 in the sample relative to NL43) [2, 6] | Resistance Index, geometric mean (IC50 in the sample relative to NL43) [2, 7] | Resistance Index, geometric mean (IC50 in the sample relative to NL43) [2, 8] | Resistance Index, geometric mean (IC50 in the sample relative to NL43) [2, 9] | further results
C=C(C)[C@@H]1CC[C@]2(C(=O)NCCCCCCCC(=O)N[C@@H](CC(C)C)[C@@H](O)CC(=O)O)CC[C@]3(C)[C@H](CC[C@@H]4[C@@]5(C)CC[C@H](O)C(C)(C)[C@@H]5CC[C@]43C)[C@@H]12 [RPR103611] | – | – | – | – | – | increase of IC50 ([1]; LAT-L91H resistant virus relative to LAI and to T5A1): greater than 100 ×
O=C1Nc2ccc(Cl)cc2[C@@](C#CC2CC2)(C(F)(F)F)O1 [Efavirenz] | 1.0 | 74.9 | 1.0 | 149.8 | > | resistance levels (in words) [2]: high resistance levels
Nc1nc(NC2CC2)c2ncn([C@H]3C=C[C@@H](CO)C3)c2n1 [Abacavir] | 1.1 | > | 4.3 | 6.1 | 1.7 | IC50 index for the native stock of the virus (Reference Virus NL4-3): about 3 μM; index IC50 for the P4 cells (cellular toxicity) (P4 cells): about 250 μM
Cc1cn([C@H]2C[C@H](N=[N+]=[N-])[C@@H](CO)O2)c(=O)[nH]c1=O [AZT, ziodvudine] | – | – | – | – | – | toxicity for the P4 cells (P4 cells): > 300 μm
O=c1[nH]cnc2c1ncn2[C@H]1CC[C@@H](CO)O1 [DDI] | 1.4 | 26.9 | 3.1 | 3.0 | 2.6 | –
T20 fusion inhibitor, a peptide derived from the distal helix sequence in the gp41 of HIV (from UniProt P03377 643-678) | – | – | – | – | – | increase of IC50 relative to LAI [3]: 12.5 fold; increase of IC50 relative to T5A1 (printed 15A1) [3]: 10 fold; increase of the value of IC50 relative to LAI [4]: > 100 fold; increase of the value of IC50 relative to T5A1 [4]: 80 fold
Cc1ccnc2c1NC(=O)c1cccnc1N2C1CC1 [Nevirapine] | – | – | – | – | – | resistance index ([2]; one virus carrying a mutation on codon 98 (A for S) of reverse transcriptase): 11.0; resistance levels (in words) [2]: high resistance levels
enfuvirtide | – | – | – | – | – | increase of IC50 ([1]; partially resistant NL4.3 virus relative to 15A1): 10 ×; increase of IC50 ([1]; partially resistant NL4.3 virus relative to LAI): 12.5 ×; increase of the value of IC50 ([1]; strongly resistant DIM virus relative to LAI): more than 100 ×; increase of the value of IC50 ([1]; strongly resistant DIM virus relative to T5A1): 80 ×
Nc1ccn([C@@H]2CS[C@H](CO)O2)c(=O)n1 [3TC, lamivudine] | 1.3 | >f | > | > | 1.8 | median Resistance Index (RI) relative to NL43 [2]: ~1.22; resistance level (in words) ([2]; sample R3): high resistance level
Cc1cn([C@H]2C=C[C@@H](CO)O2)c(=O)[nH]c1=O [D4T, stavudine] | – | – | – | – | – | median Resistance Index (RI) relative to NL43 [2]: around 0.92
